Measured values as given in patent US10738028B2, “Spiro three-membered ring, spiro five-membered ring peptide deformylase inhibitor and use thereof in antibacteria and anti-tumor” (priority 2016, dated 2020).

Experiments:
Format in all cases: cell-based
[1] = system: HCT-116 colorectal cancer cell line; test: CCK-8 proliferation inhibition; conditions: concentration of 30 μM, 72 hours, CCK-8
In short: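 Cells were plated overnight at 2000 cells/well, then compound in culture medium was added at a range of final concentrations. After 72 hours in a CO2 incubator, medium was replaced with 1:10 CCK-8 solution for the read-out.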

[2] = system: MGC-803 gastric cancer cell line; test: CCK-8 proliferation inhibition; conditions: Homo sapiens, MGC-803, 72 h, concentration of 30 μM
In short: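 Proliferation was measured with 1:10 diluted CCK-8 after a 72-hour incubation with the inhibitors at various final concentrations, using 1‰ DMSO as the control. Cells were plated at 2000 per well. Culture media contained 10% newborn bovine serum: 1640 for Jurkat and MGC-803, F12 for PC3, DMEM high glucose for MCF-7.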

[3] = system: BEL-7402 liver cancer cell line; test: CCK-8 proliferation inhibition; conditions: concentration of 30 μM
In short: (§1)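 Plating at 2000 cells/well, then incubation overnight at 37° C. Next, a range of compound concentrations for 72 hours (control 1‰ DMSO). Finally, medium decanted and CCK-8 diluted 1:10 added.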

[4] = system: A549 lung cancer cell line; test: CCK-8 proliferation inhibition; conditions: concentration of 30 μM
In short: as §1

[5] = system: Enterococcus faecium (EFM); test: MIC, two-fold agar dilution (CLSI), clinical isolates
In short: (§2)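 MIC values come from two-fold agar dilution run per CLSI antimicrobial susceptibility testing procedure.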

[6] = system: Enterococcus faecalis (EFA); test: as above
In short: as §2

[7] = system: methicillin-resistant Staphylococcus aureus (MRSA); test: as above
In short: as §2

[8] = system: Moraxella catarrhalis (BCA); test: as above
In short: as §2

[9] = system: Streptococcus pneoumoniae (SPN); test: as above
In short: as §2

[10] = system: methicillin-resistant Staphylococcus epidermidis (MRSE); test: as above
In short: as §2

[11] = system: methicillin-sensitive Staphylococcus epidermidis (MSSE); test: as above
In short: as §2

[12] = system: methicillin-sensitive Staphylococcus aureus (MSSA); test: as above
In short: as §2

[13] = system: Escherichia coli (including ESBLs, non-ESBLs); test: as above
In short: as §2

CCCC[C@H](CC(=O)NO)C(=O)N1CC2(CC2)C[C@H]1C(=O)Nc1ccc(F)cn1 [Example 46, (S)—N-(5-fluoropyridin-2-yl)-5-((R)-2-(2-(hydroxyamino)-2-oxoethyl)hexanoyl)-5-spiro[2.4]heptane-6-carboxamide]
inhibition at 30 µM ([1]; Homo sapiens, HCT-116, 72 h, read-out: HCT116 inhibition rate/%): > 50% | HCT116 inhibition rate/% ([1]; 30 µM): 58% | inhibition at 30 µM [2]: 48% | inhibition at 30 µM ([3]; Homo sapiens, Bel-7402, 72 h): > 50% | Inhibition of proliferation, Liver cancer BEL-7402 ([3]; 72 hours, 30 µM): 70% | inhibition at 30 µM ([4]; Homo sapiens, A549, 72 h): > 50% | Inhibition of proliferation, Lung cancer A549 ([4]; 72 hours, 30 µM): 60% | Anti-bacterial activity (MIC), strain EFM 15-1 ([5]; clinical isolate EFM 15-1): > 32 mg/L | Anti-bacterial activity (MIC), strain EFM 15-2 ([5]; clinical isolate EFM 15-2): > 32 mg/L | Anti-bacterial activity (MIC), strain EFM 15-3 ([5]; clinical isolate EFM 15-3): > 32 mg/L | Anti-bacterial activity (MIC), strain EFM 15-4 ([5]; clinical isolate EFM 15-4): > 32 mg/L | Anti-bacterial activity (MIC), strain EFM 15-5 ([5]; clinical isolate EFM 15-5): 0.5 mg/L | Anti-bacterial activity (MIC), strain EFM 15-6 ([5]; clinical isolate EFM 15-6): 1 mg/L | Anti-bacterial activity (MIC), strain EFA 15-1 ([6]; clinical isolate EFA 15-1): > 32 mg/L | Anti-bacterial activity (MIC), strain EFA 15-2 ([6]; clinical isolate EFA 15-2): > 32 mg/L | Anti-bacterial activity (MIC), strain EFA 15-3 ([6]; clinical isolate EFA 15-3): > 32 mg/L | Anti-bacterial activity (MIC), strain EFA 15-4 ([6]; clinical isolate EFA 15-4): > 32 mg/L | Anti-bacterial activity (MIC), strain EFA 15-5 ([6]; clinical isolate EFA 15-5): > 32 mg/L | Anti-bacterial activity (MIC), strain EFA 15-6 ([6]; clinical isolate EFA 15-6): > 32 mg/L | Anti-bacterial activity (MIC), strain EFA 15-9 ([6]; clinical isolate EFA 15-9): 4 mg/L | Anti-bacterial activity (MIC), strain MRSA 15-1 ([7]; clinical isolate MRSA 15-1): 0.25 mg/L | Anti-bacterial activity (MIC), strain MRSA 15-2 ([7]; clinical isolate MRSA 15-2): 1 mg/L | Anti-bacterial activity (MIC), strain MRSA 15-3 ([7]; clinical isolate MRSA 15-3): 1 mg/L | Anti-bacterial activity (MIC), strain MRSA 15-4 ([7]; clinical isolate MRSA 15-4): 1 mg/L | Anti-bacterial activity (MIC), strain BCA 14-1 ([8]; clinical isolate BCA 14-1): 1 mg/L | Anti-bacterial activity (MIC), strain BCA 14-4 ([8]; clinical isolate BCA 14-4): 1 mg/L | Anti-bacterial activity (MIC), strain BCA 14-5 ([8]; clinical isolate BCA 14-5): 0.5 mg/L | Anti-bacterial activity (MIC), strain BCA 14-6 ([8]; clinical isolate BCA 14-6): 0.5 mg/L | Anti-bacterial activity (MIC), strain BCA 14-7 ([8]; clinical isolate BCA 14-7): 1 mg/L | Anti-bacterial activity (MIC), strain BCA 14-8 ([8]; clinical isolate BCA 14-8): 1 mg/L | Anti-bacterial activity (MIC), strain BCA 14-10 ([8]; clinical isolate BCA 14-10): 0.5 mg/L | Anti-bacterial activity (MIC), strain SPN 16-2 ([9]; clinical isolate SPN 16-2): 0.5 mg/L | Anti-bacterial activity (MIC), strain SPN 16-4 ([9]; clinical isolate SPN 16-4): 0.5 mg/L | Anti-bacterial activity (MIC), strain MRSE 15-1 ([10]; clinical isolate MRSE 15-1): 1 mg/L | Anti-bacterial activity (MIC), strain MRSE 15-2 ([10]; clinical isolate MRSE 15-2): 1 mg/L | Anti-bacterial activity (MIC), strain MRSE 15-3 ([10]; clinical isolate MRSE 15-3): 1 mg/L | Anti-bacterial activity (MIC), strain MRSE 15-7 ([10]; clinical isolate MRSE 15-7): 1 mg/L | Anti-bacterial activity (MIC), strain MSSE 15-3 ([11]; clinical isolate MSSE 15-3): 1 mg/L | Anti-bacterial activity (MIC), strain MSSE 15-4 ([11]; clinical isolate MSSE 15-4): 1 mg/L | Anti-bacterial activity (MIC), strain MSSE 15-5 ([11]; clinical isolate MSSE 15-5): 1 mg/L | Anti-bacterial activity (MIC), strain MSSE 15-6 ([11]; clinical isolate MSSE 15-6): 1 mg/L | Anti-bacterial activity (MIC), strain MSSA 15-3 ([12]; clinical isolate MSSA 15-3): 0.25 mg/L | Anti-bacterial activity (MIC), strain MSSA 15-4 ([12]; clinical isolate MSSA 15-4): 1 mg/L | Anti-bacterial activity (MIC), strain MSSA 15-5 ([12]; clinical isolate MSSA 15-5): 1 mg/L | Anti-bacterial activity (MIC), strain MSSA 15-6 ([12]; clinical isolate MSSA 15-6): > 32 mg/L | Anti-bacterial activity (MIC), strain ECO+ 15-1 ([13]; clinical isolate ECO+ 15-1): 32 mg/L | Anti-bacterial activity (MIC), strain ECO+ 15-2 ([13]; clinical isolate ECO+ 15-2): > 32 mg/L | Anti-bacterial activity (MIC), strain ECO+ 15-3 ([13]; clinical isolate ECO+ 15-3): > 32 mg/L | Anti-bacterial activity (MIC), strain ECO+ 15-4 ([13]; clinical isolate ECO+ 15-4): 1 mg/L | Anti-bacterial activity (MIC), strain ECO− 15-1 ([13]; clinical isolate ECO− 15-1): > 32 mg/L | Anti-bacterial activity (MIC), strain ECO− 15-2 ([13]; clinical isolate ECO− 15-2): > 32 mg/L | Anti-bacterial activity (MIC), strain ECO− 15-3 ([13]; clinical isolate ECO− 15-3): > 32 mg/L | Anti-bacterial activity (MIC), strain ECO− 15-4 ([13]; clinical isolate ECO− 15-4): > 32 mg/L
